Measurements reported in patent US8415299B2, “Methods for improved avian performance” (priority 2004, dated 2013).
Where two headings read alike, the source gives them in different places. Marks after values point to notes of the source that are not given here.

Assays:
[1] = tested on: Cobb broiler breeder hens and roosters; assay type: in vivo
Description: Molting Cobb Broiler Breeder Hens and Roosters with Dietary Thyroxine.

[2] = tested on: 60-week old Hy-Line W-36 White Leghorn hens; details: for Feed Intake: day 22 to day 28
Procedure: Experiment 1. […] The photoperiod was 17 hours of light per day (0330 hours to 2030 hours).

turkey hens = details: cited from earlier work
Bovans caged laying hens = assay: Experiment 6: molting of caged laying hens with dietary L-thyroxine or thyroactive iodinated casein; assay type: in vivo, chickens; details: for 9 Jun. 2005 (9th d Trt) Body Wt Change: 10 hours of light daily; for 25 May 2005 Initial Body Wt: before 7-day pretest
Description: Experiment 6. Molting of Caged Laying with Dietary L-Thyroxine or Thyroactive Iodinated Casein
In Experiment 6, a conventional feed withdrawal molting procedure was compared with 5 dietary thyroxine treatments. Body weight loss after 9 days was greater, days to 0% egg production (9 days) shorter, ovary plus oviduct weight numerically lighter on day 9 of treatment, but eggs collected on day 4 of treatment had thinner shells, in the feed withdrawal group.

laying hens = details: cited from earlier work

## N[C@@H](Cc1cc(I)c(Oc2cc(I)c(O)c(I)c2)c(I)c1)C(=O)O [L-thyroxine, 3,5,3′,5′-tetraiodothyronine]
[1]; 25 or 40 mg/kg diet, roosters began to stroke blood from the nostrils
  Tolerance in roosters: males were unable to tolerate these levels of L-thyroxine
[1]; 25 ppm feed from 22-Sep, pen 50, 1-Nov
  # Eggs per pen: 0
[1]; 25 ppm feed from 22-Sep, pen 50, 1-Oct
  # Eggs per pen: 3
[1]; 25 ppm feed from 22-Sep, pen 50, 2-Nov
  # Eggs per pen: 0
[1]; 25 ppm feed from 22-Sep, pen 50, 2-Oct
  # Eggs per pen: 1
[1]; 25 ppm feed from 22-Sep, pen 50, 3-Nov
  # Eggs per pen: 0
[1]; 25 ppm feed from 22-Sep, pen 50, 3-Oct
  # Eggs per pen: 0
[1]; 25 ppm feed from 22-Sep, pen 50, 4-Nov
  # Eggs per pen: 0
[1]; 25 ppm feed from 22-Sep, pen 50, 4-Oct
  # Eggs per pen: 1
[1]; 25 ppm feed from 22-Sep, pen 50, 5-Oct
  # Eggs per pen: 1
[1]; 25 ppm feed from 22-Sep, pen 50, 6-Oct
  # Eggs per pen: 0
[1]; 25 ppm feed from 22-Sep, pen 50, 7-Oct
  # Eggs per pen: 0
[1]; 25 ppm feed from 22-Sep, pen 50, 8-Oct
  # Eggs per pen: 3
[1]; 25 ppm feed from 22-Sep, pen 50, 9-Oct
  # Eggs per pen: 1
[1]; 25 ppm feed from 22-Sep, pen 50, 10-Oct
  # Eggs per pen: 0
[1]; 25 ppm feed from 22-Sep, pen 50, 11-Oct
  # Eggs per pen: 0
[1]; 25 ppm feed from 22-Sep, pen 50, 12-Oct
  # Eggs per pen: 0
[1]; 25 ppm feed from 22-Sep, pen 50, 13-Oct
  # Eggs per pen: 0
[1]; 25 ppm feed from 22-Sep, pen 50, 14-Oct
  # Eggs per pen: 0
[1]; 25 ppm feed from 22-Sep, pen 50, 15-Oct
  # Eggs per pen: 0
[1]; 25 ppm feed from 22-Sep, pen 50, 16-Oct
  # Eggs per pen: 0
[1]; 25 ppm feed from 22-Sep, pen 50, 16-Sep
  # Eggs per pen: 15
[1]; 25 ppm feed from 22-Sep, pen 50, 17-Oct
  # Eggs per pen: 0
[1]; 25 ppm feed from 22-Sep, pen 50, 17-Sep
  # Eggs per pen: 14
[1]; 25 ppm feed from 22-Sep, pen 50, 18-Oct
  # Eggs per pen: 0
[1]; 25 ppm feed from 22-Sep, pen 50, 18-Sep
  # Eggs per pen: 11
[1]; 25 ppm feed from 22-Sep, pen 50, 19-Oct
  # Eggs per pen: 0
[1]; 25 ppm feed from 22-Sep, pen 50, 19-Sep
  # Eggs per pen: 17
[1]; 25 ppm feed from 22-Sep, pen 50, 20-Oct
  # Eggs per pen: 0
[1]; 25 ppm feed from 22-Sep, pen 50, 20-Sep
  # Eggs per pen: 15
[1]; 25 ppm feed from 22-Sep, pen 50, 21-Oct
  # Eggs per pen: 0
[1]; 25 ppm feed from 22-Sep, pen 50, 21-Sep
  # Eggs per pen: 14
[1]; 25 ppm feed from 22-Sep, pen 50, 22-Oct
  # Eggs per pen: 0
[1]; 25 ppm feed from 22-Sep, pen 50, 22-Sep
  # Eggs per pen: 14
[1]; 25 ppm feed from 22-Sep, pen 50, 23-Oct
  # Eggs per pen: 0
[1]; 25 ppm feed from 22-Sep, pen 50, 23-Sep
  # Eggs per pen: 19
[1]; 25 ppm feed from 22-Sep, pen 50, 24-Oct
  # Eggs per pen: 0
[1]; 25 ppm feed from 22-Sep, pen 50, 24-Sep
  # Eggs per pen: 7
[1]; 25 ppm feed from 22-Sep, pen 50, 25-Oct
  # Eggs per pen: 0
[1]; 25 ppm feed from 22-Sep, pen 50, 25-Sep
  # Eggs per pen: 8
[1]; 25 ppm feed from 22-Sep, pen 50, 26-Oct
  # Eggs per pen: 0
[1]; 25 ppm feed from 22-Sep, pen 50, 26-Sep
  # Eggs per pen: 9
[1]; 25 ppm feed from 22-Sep, pen 50, 27-Oct
  # Eggs per pen: 0
[1]; 25 ppm feed from 22-Sep, pen 50, 27-Sep
  # Eggs per pen: 4
[1]; 25 ppm feed from 22-Sep, pen 50, 28-Oct
  # Eggs per pen: 0
[1]; 25 ppm feed from 22-Sep, pen 50, 28-Sep
  # Eggs per pen: 3
[1]; 25 ppm feed from 22-Sep, pen 50, 29-Oct
  # Eggs per pen: 0
[1]; 25 ppm feed from 22-Sep, pen 50, 29-Sep
  # Eggs per pen: 1
[1]; 25 ppm feed from 22-Sep, pen 50, 30-Oct
  # Eggs per pen: 0
[1]; 25 ppm feed from 22-Sep, pen 50, 30-Sep
  # Eggs per pen: 0
[1]; 25 ppm feed from 22-Sep, pen 50, 31-Oct
  # Eggs per pen: 0
[1]; 40 ppm feed from 22-Sep, pen 51, 1-Nov
  # Eggs per pen: 1
[1]; 40 ppm feed from 22-Sep, pen 51, 1-Oct
  # Eggs per pen: 1
[1]; 40 ppm feed from 22-Sep, pen 51, 2-Nov
  # Eggs per pen: 3
[1]; 40 ppm feed from 22-Sep, pen 51, 2-Oct
  # Eggs per pen: 0
[1]; 40 ppm feed from 22-Sep, pen 51, 3-Nov
  # Eggs per pen: 3
[1]; 40 ppm feed from 22-Sep, pen 51, 3-Oct
  # Eggs per pen: 0
[1]; 40 ppm feed from 22-Sep, pen 51, 4-Nov
  # Eggs per pen: 5
[1]; 40 ppm feed from 22-Sep, pen 51, 4-Oct
  # Eggs per pen: 0
[1]; 40 ppm feed from 22-Sep, pen 51, 5-Oct
  # Eggs per pen: 0
[1]; 40 ppm feed from 22-Sep, pen 51, 6-Oct
  # Eggs per pen: 0
[1]; 40 ppm feed from 22-Sep, pen 51, 7-Oct
  # Eggs per pen: 0
[1]; 40 ppm feed from 22-Sep, pen 51, 8-Oct
  # Eggs per pen: 0
[1]; 40 ppm feed from 22-Sep, pen 51, 9-Oct
  # Eggs per pen: 0
[1]; 40 ppm feed from 22-Sep, pen 51, 10-Oct
  # Eggs per pen: 0
[1]; 40 ppm feed from 22-Sep, pen 51, 11-Oct
  # Eggs per pen: 0
[1]; 40 ppm feed from 22-Sep, pen 51, 12-Oct
  # Eggs per pen: 0
[1]; 40 ppm feed from 22-Sep, pen 51, 13-Oct
  # Eggs per pen: 0
[1]; 40 ppm feed from 22-Sep, pen 51, 14-Oct
  # Eggs per pen: 0
[1]; 40 ppm feed from 22-Sep, pen 51, 15-Oct
  # Eggs per pen: 0
[1]; 40 ppm feed from 22-Sep, pen 51, 16-Oct
  # Eggs per pen: 0
[1]; 40 ppm feed from 22-Sep, pen 51, 16-Sep
  # Eggs per pen: 12
[1]; 40 ppm feed from 22-Sep, pen 51, 17-Oct
  # Eggs per pen: 0
[1]; 40 ppm feed from 22-Sep, pen 51, 17-Sep
  # Eggs per pen: 19
[1]; 40 ppm feed from 22-Sep, pen 51, 18-Oct
  # Eggs per pen: 0
[1]; 40 ppm feed from 22-Sep, pen 51, 18-Sep
  # Eggs per pen: 19
[1]; 40 ppm feed from 22-Sep, pen 51, 19-Oct
  # Eggs per pen: 0
[1]; 40 ppm feed from 22-Sep, pen 51, 19-Sep
  # Eggs per pen: 20
[1]; 40 ppm feed from 22-Sep, pen 51, 20-Oct
  # Eggs per pen: 0
[1]; 40 ppm feed from 22-Sep, pen 51, 20-Sep
  # Eggs per pen: 16
[1]; 40 ppm feed from 22-Sep, pen 51, 21-Oct
  # Eggs per pen: 0
[1]; 40 ppm feed from 22-Sep, pen 51, 21-Sep
  # Eggs per pen: 16
[1]; 40 ppm feed from 22-Sep, pen 51, 22-Oct
  # Eggs per pen: 0
[1]; 40 ppm feed from 22-Sep, pen 51, 22-Sep
  # Eggs per pen: 18
[1]; 40 ppm feed from 22-Sep, pen 51, 23-Oct
  # Eggs per pen: 0
[1]; 40 ppm feed from 22-Sep, pen 51, 23-Sep
  # Eggs per pen: 15
[1]; 40 ppm feed from 22-Sep, pen 51, 24-Oct
  # Eggs per pen: 0
[1]; 40 ppm feed from 22-Sep, pen 51, 24-Sep
  # Eggs per pen: 10
[1]; 40 ppm feed from 22-Sep, pen 51, 25-Oct
  # Eggs per pen: 0
[1]; 40 ppm feed from 22-Sep, pen 51, 25-Sep
  # Eggs per pen: 11
[1]; 40 ppm feed from 22-Sep, pen 51, 26-Oct
  # Eggs per pen: 0
[1]; 40 ppm feed from 22-Sep, pen 51, 26-Sep
  # Eggs per pen: 6
[1]; 40 ppm feed from 22-Sep, pen 51, 27-Oct
  # Eggs per pen: 0
[1]; 40 ppm feed from 22-Sep, pen 51, 27-Sep
  # Eggs per pen: 5
[1]; 40 ppm feed from 22-Sep, pen 51, 28-Oct
  # Eggs per pen: 0
[1]; 40 ppm feed from 22-Sep, pen 51, 28-Sep
  # Eggs per pen: 0
[1]; 40 ppm feed from 22-Sep, pen 51, 29-Oct
  # Eggs per pen: 3
[1]; 40 ppm feed from 22-Sep, pen 51, 29-Sep
  # Eggs per pen: 1
[1]; 40 ppm feed from 22-Sep, pen 51, 30-Oct
  # Eggs per pen: 3
[1]; 40 ppm feed from 22-Sep, pen 51, 30-Sep
  # Eggs per pen: 0
[1]; 40 ppm feed from 22-Sep, pen 51, 31-Oct
  # Eggs per pen: 3
[1]; Cobb broiler breeder hens on thyroxine treated feed (25 or 40 mg/kg)
  Time to reduced feed intake, ceased egg production and start of feather molt: 15 to 17 days
[2]; 250 μg T4 per kg body weight i.m. for 12 consecutive days
  Effect on egg production: did not reduce egg production significantly
[2]; 500 μg T4 Group
  Day after start of T4 injection on which molting began in all cages: 11 days
  Time after start of injecting at which egg production was significantly reduced: 4 days
[2]; 1,000 μg T4 Group
  Day after start of T4 injection on which molting began in all cages: 9 days
  Time after start of injecting at which egg production was significantly reduced: 4 days
[2]; 1,000 μg T4 Group, 2 of 8 hens, died 9th and 10th day after start of injection
  Mortality: 25%
[2]; 2,000 μg T4 Group
  Day after start of injection on which molting commenced in all cages: 9 days
[2]; 2,000 μg T4 per kg body weight i.m. for 3 consecutive days
  Time to rapid and complete cessation of egg production: ≤ 6 days
[2]; 4,000 μg T4 Group
  Day after start of injection on which molting commenced in all cages: 9 days
[2]; 4000 μg T4 Group, 1 of 4 hens, died 8th day after start of injection
  Mortality: 25%
[2]; 4,000 μg T4 per kg body weight i.m. for 3 consecutive days
  Time to rapid and complete cessation of egg production: ≤ 4 days
[2]; 250 mcg/kg BW i.m. 12 d
  End of Injections Body Weight: 1300 g
  Feed Intake: 58.7 g/hen/day
[2]; 500 mcg/kg BW i.m. 8 d
  Feed Intake: 52.3 g/hen/day
[2]; 1,000 mcg/kg BW i.m. 8 d
  Feed Intake: 31.4 g/hen/day
[2]; 2,000 mcg/kg BW i.m. 3 d
  Feed Intake: 20.2 g/hen/day
[2]; 4,000 mcg/kg BW i.m. 3 d
  Feed Intake: 11.7 g/hen/day
Turkey hens; 2 mg/hen/day i.m. (Lien and Siopes 1993)
  Time out of egg production after treatment: 4 weeks
Turkey hens; 3 mcg/mL water (600 to 900 mcg/bird/day), 20 to 25 week old turkey females (Bilezikian et al. 1980)
  Egg laying: rarely lay eggs
Bovans caged laying hens; 20 mg T4/kg diet
  9 Jun. 2005 (9th d Trt) Body Wt Change: −0.50^b lb
  25 May 2005 Initial Body Wt: 3.49 lb
Bovans caged laying hens; 40 mg T4/kg diet
  Days to 0% egg production: 11 days
  Weight loss: −0.54 lb
  9 Jun. 2005 (9th d Trt) Body Wt Change: −0.60^b lb
  25 May 2005 Initial Body Wt: 3.57 lb
Laying hens; 0.2 mg per hen for 21 consecutive days (Szelenyi and Peczely 1988)
  Effect on egg production and molting: diminished egg production but did not result in molting
Laying hens; injected, e.g. 243 micrograms/100 g body weight, White Leghorn hens 7 months of age (Miller et al. 1962)
  Mortality: 47%
